Data on three molecules can be found in publication PMC5940250 (The Journal of General Physiology, 2018).

What all share (assay): two-electrode voltage clamp, oocytes, G
Holding throughout (format): cell-based
(In two-electrode clamp one electrode senses voltage and the other passes current.)

Experiment [1] concerns the target T1, human M channel (hKV7.2/7.3) (Homo sapiens, UniProt O43525+O43526). As to conditions: 100 µM; pH 7.4, room temperature; not significant.
For experiment [2], the target named is Shaker KV channel (Shaker H4, Δ6-46; "WT Shaker KV channel") (Drosophila melanogaster, UniProt P08510, DEL6-46/R362Q).
For experiment [3], the target named is T1, human M channel (hKV7.2/7.3).
In experiment [4] the target is Shaker KV channel (Shaker H4, Δ6-46; "WT Shaker KV channel") (Drosophila melanogaster, UniProt P08510, DEL6-46/L358R/R362Q).

Structures can show the parent of a compound that is named as a salt.

Broadly, the EC50 is the concentration that produces a half-maximal response. Read a low EC50 as greater potency.

T1 sequence (O43526 whole entry): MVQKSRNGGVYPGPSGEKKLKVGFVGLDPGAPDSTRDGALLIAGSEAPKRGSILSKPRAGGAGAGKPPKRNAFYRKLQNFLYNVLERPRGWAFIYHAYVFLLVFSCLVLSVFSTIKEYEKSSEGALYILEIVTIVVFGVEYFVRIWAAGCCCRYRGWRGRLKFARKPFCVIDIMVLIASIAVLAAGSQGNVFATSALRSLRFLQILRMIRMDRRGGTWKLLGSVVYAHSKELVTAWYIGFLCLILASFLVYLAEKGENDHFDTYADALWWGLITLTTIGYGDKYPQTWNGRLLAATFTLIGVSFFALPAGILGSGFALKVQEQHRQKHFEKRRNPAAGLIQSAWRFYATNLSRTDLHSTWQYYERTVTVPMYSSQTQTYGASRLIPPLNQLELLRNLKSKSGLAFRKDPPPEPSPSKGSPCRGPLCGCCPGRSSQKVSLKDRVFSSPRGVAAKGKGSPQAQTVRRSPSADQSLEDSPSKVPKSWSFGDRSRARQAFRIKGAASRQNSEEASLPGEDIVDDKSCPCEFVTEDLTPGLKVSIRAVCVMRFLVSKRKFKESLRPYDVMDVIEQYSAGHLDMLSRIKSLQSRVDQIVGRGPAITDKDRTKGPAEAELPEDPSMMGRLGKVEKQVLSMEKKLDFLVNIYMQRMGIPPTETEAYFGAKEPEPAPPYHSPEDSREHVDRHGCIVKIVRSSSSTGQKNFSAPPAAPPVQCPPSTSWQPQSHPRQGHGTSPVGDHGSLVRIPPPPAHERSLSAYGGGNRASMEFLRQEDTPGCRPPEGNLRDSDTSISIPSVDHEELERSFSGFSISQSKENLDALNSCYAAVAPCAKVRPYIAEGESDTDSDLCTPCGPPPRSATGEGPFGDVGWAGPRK
T1 sequence (O43525 whole entry): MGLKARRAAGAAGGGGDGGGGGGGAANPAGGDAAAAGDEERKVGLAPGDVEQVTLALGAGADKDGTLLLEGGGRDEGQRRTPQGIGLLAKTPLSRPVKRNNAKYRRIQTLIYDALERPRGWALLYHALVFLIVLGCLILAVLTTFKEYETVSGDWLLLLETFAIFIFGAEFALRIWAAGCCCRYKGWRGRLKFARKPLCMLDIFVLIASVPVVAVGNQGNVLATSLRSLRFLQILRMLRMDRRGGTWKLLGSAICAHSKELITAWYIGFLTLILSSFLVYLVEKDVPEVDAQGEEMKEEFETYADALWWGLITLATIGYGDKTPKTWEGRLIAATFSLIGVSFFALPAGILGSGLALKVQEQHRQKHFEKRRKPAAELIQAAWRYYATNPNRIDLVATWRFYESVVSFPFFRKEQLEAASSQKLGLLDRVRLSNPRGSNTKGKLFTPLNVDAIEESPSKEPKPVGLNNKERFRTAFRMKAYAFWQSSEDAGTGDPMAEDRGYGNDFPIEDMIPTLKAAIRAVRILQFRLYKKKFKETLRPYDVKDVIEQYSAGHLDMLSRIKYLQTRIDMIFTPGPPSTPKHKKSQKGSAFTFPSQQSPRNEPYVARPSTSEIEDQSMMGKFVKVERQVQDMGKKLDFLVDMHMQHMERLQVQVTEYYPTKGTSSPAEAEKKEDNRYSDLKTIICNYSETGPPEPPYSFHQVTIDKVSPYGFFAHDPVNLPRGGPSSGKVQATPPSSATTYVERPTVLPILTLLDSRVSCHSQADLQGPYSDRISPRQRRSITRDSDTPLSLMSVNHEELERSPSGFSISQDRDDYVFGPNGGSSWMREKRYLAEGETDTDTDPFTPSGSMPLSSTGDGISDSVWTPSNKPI

On to `CC(C)c1ccc2c(c1)CC[C@H]1[C@](C)(CNS(C)(=O)=O)CCC[C@]21C` [Wu110, N-(((1R,4aS,10aR)-7-isopropyl-1,4a-dimethyl-1,2,3,4,4a,9,10,10a-octahydrophenanthren-1-yl)methyl)methanesulfonamide], for which the “ΔV ± SEM” value in experiment [1] was “–1.5 ± 0.4 mV”.
For the molecule `CC(C)c1ccc2c(c1)CC[C@H]1[C@](C)(COS(=O)(=O)O)CCC[C@]21C` [Wu161, ((1R,4aS,10aR)-7-isopropyl-1,4a-dimethyl-1,2,3,4,4a,9,10,10a-octahydrophenanthren-1-yl)methyl hydrogen sulfate], the EC50 in experiment [2] was 36 µM; in experiment [3], 62 ± 15 µM; in experiment [4], 70 µM.
Molecule `C[C@@]1(COS(=O)(=O)O)CCC[C@]2(C)c3cc(Cl)c(Cl)c(Cl)c3CC[C@@H]12` [Wu181, ((1R,4aS,10aR)-6,7,8-trichloro-1,4a-dimethyl-2,3,4,9,10,10a-hexahydrophenanthrene-1-yl)methyl hydrogen sulfate] had a 50% effective concentration (EC50) in experiment [3] of 12 ± 3 µM.
